In patent US20200062712A1, “ALDEHYDE TRAPPING COMPOUNDS AND USES THEREOF” (Aldeyra Therapeutics, Inc., priority 2016, published 2020):

How the values were obtained:
[1] = Rate of formation of aldehyde (4-HNE) adducts, HPLC product peak over time; conditions: for Formation of Product 7 Hours (ranking, most effective to least) / Formation of Product 23 Hours (ranking, most effective to least): rank 1 = most effective; for Gradient (rate of product peak increase, formation of aldehyde adduct): best fit line
Procedure: It is not possible to conclude if this is the result of poor dissociation (from cyclodextrin) or poor interaction with the aldehyde. Best fit lines over this period give excellent fit to data. […] It can be used to relatively rank each of the samples examined, including NS2. The data were first evaluated over a 7 h time window.
Similar results were obtained when the window was extended to 23 h. However, two of the compounds yielded lower R. Sq. values in this context.
During this time period 3 of the 5 samples reached equilibrium.

[2] = test system: brain slices of B6.129-Aldh5a1tm1Kmg/J (SSADH null) mice; experiment: Ex vivo SSADH study: GABA and GHB content of brain slices and incubation media by HPLC; format: cell-based; conditions: 100 μg/mL, 24 hours incubation; SSADH null mouse brain slices
Procedure: Three and one half (3.5) days after birth, B6.129-Aldh5a1^tm1Kmg/J (SSADH null) mice and wild type (wt) littermates animals were sacrificed and brains were harvested. […] Brain slices and the incubation media (sup) were then analyzed by HPLC for GHB and GABA content.

[3] = Formation of 4-HNE adduct with exemplary compounds (AUC of adduct over time); conditions: one equivalent of 4-HNE and 2 equivalents of compound; performed twice
Procedure: The ability of exemplary compounds to react with 4-HNE and form the corresponding adduct was measured. All compounds were analyzed by HPLC at 254 nm for their purity prior to the reaction.
Area under the curve (AUC) of each adduct was plotted over time.

[4] = Consumption of 4-HNE over time, HPLC at 254 nm; conditions: for Consumption of 4-HNE 7 Hours (ranking, most effective to least): rank 1 = most effective; for Consumption of 4-HNE 23 Hours (ranking, most effective to least): small differences between samples ranking 1-4, essentially identical; for Decrease in HNE versus corresponding increase in adduct: one-week time period
Source text: Five of 6 samples show consumption of 4-HNE. One sample (2-(3-aminoquinolin-2-yl)propan-2-ol) overlaps the 4-HNE HPLC peak using the current method. Best fit lines over this period give poorer fit to data than product formation data. Rate of 4-HNE consumption can be used as an approximation of binding kinetics.
The samples appeared to reach equilibrium, with the ongoing decrease in HNE amounts possibly due to another degradative pathway.

abcr−/− knockout mice = format: in vivo; conditions: 10 mg/kg IP daily for 56 days, p=0.011
Procedure: This experiment is designed to establish proof of concept that chronic intraperitoneal administration of a RAL-trap compound lowers the accumulation rate of A2E in B6:129SvEv-Abcr (abcr−/−) mice.
The study was performed with B6:129SvEv-Abcr (abcr−/−) mice. Treatment groups included 24 mice (males and females) per treatment condition. Each animal was treated with one of the following conditions: • Control: a commercially available compound known clinically to modulate retinal function in humans and known experimentally to form a Schiff base adduct with free RAL, both in vitro and in vivo in animal models. • Vehicle • Compound • Untreated
A third group of animals served as untreated controls and were sacrificed on Day 1 of the study.
The experiments described herein used a variety of biology and biochemistry services. If necessary, non-toxic doses of compounds of the invention, formulated for treatment with an eye drop or other formations, may be established, e.g., in the rabbit with an ocular irritation protocol. […] Light responses were characterized by ERG (Weng, et al., Cell 98:13, 1999). Intracellular A2E concentration of retinal RPE cell extracts were measured using an analytical method such as those described by Karan et al., 2005; Radu et al., 2003; and Parish et al., PNAS 95:14609, 1998.

[5] = 7 h time window, samples in cyclodextrin

Row | Structure (SMILES) | Formation of Product 7 Hours (ranking, most effective to least) [1] | Formation of Product 23 Hours (ranking, most effective to least) [1] | Gradient (rate of product peak increase, formation of aldehyde adduct) [1, 5] | Gradient (rate of product peak increase, formation of aldehyde adduct) ([1]; window extended to 23 h) | GABA content compared to the controls [2] | GHB content compared to the controls [2] | Formation of the corresponding adduct with 4-HNE [3] | Consumption of 4-HNE 7 Hours (ranking, most effective to least) [4] | Consumption of 4-HNE 23 Hours (ranking, most effective to least) [4] | Gradient (rate of 4-HNE consumption) ([4]; 23 h) | Gradient (rate of 4-HNE consumption) ([4]; first 7 h, analysis at 254 nm) | Decrease in HNE versus corresponding increase in adduct [4] | Reduction of formation of A2E compared with vehicle-treated controls (abcr−/− knockout mice) [%]
1 | CC(C)(O)c1nc2ccccc2cc1N [Compound I-1, 2-(3-aminoquinolin-2-yl)propan-2-ol] | 1 | 1 | (Gradient 3.68, R. | (Gradient 1.99, R. | decreased | decreased | formed the corresponding adduct with 4-HNE |  |  |  |  |  | 
2 | CC(C)(O)c1nc2cccc(Cl)c2cc1N [Compound I-2, 2-(3-amino-5-chloroquinolin-2yl)propan-2-ol] | 6 | 6 | (Gradient 0.86, R. | (Gradient 0.44, R. |  |  |  | 3 | 2 | (Gradient −0.04, R. | (Gradient −0.05, R. |  | 
3 | CC(C)(O)c1nc2cc(Cl)ccc2cc1N [Compound I-3, 2-(3-amino-7-chloroquinolin-2-yl)propan-2-ol] | 3 | 3 | (Gradient 2.02, R. | (Gradient 1.21, R. |  |  |  | 2 | 1 | (Gradient −0.05, R. | (Gradient −0.06, R. | decrease in HNE is greater than the corresponding increase in adduct | 
4 | CC(C)(O)c1nc2c(Cl)cccc2cc1N [Compound I-4, 2-(3-amino-8-chloroquinolin-2-yl)propan-2-ol] | 5 | 5 | (Gradient 1.18, R. | (Gradient 0.81, R. |  |  |  | 5 | 5 | (Gradient −0.02, R. | (Gradient −0.01, R. | decrease in HNE is greater than the corresponding increase in adduct | 
5 | CC(C)(O)c1nc2ccc(Br)cc2cc1N [Compound I-5, 2-(3-amino-6-bromoquinolin-2-yl)propan-2-ol] | 4 | 4 | (Gradient 1.63, R. | (Gradient 1.16, R. |  |  |  | 4 | 4 | (Gradient −0.04, R. | (Gradient −0.04, R. |  | 
6 | CC(C)(O)c1nc2ccc(Cl)cc2cc1N [NS2, 2-(3-amino-6-chloroquinolin-2-yl)propan-2-ol, reference compound] | 2 | 2 | (Gradient 2.22, R. | (Gradient 1.33, R. | decreased | decreased | formed the corresponding adduct with 4-HNE | 1 | 3 | (Gradient −0.04, R. | (Gradient −0.15, R. |  | 71
